Measured values: ChEMBL document CHEMBL3046327, “Nicotinic acid hydrazones: a novel anticonvulsant pharmacophore” (Med Chem Res, 2011)
Calls of active or inactive are those of the source. The rule behind the calls is not given here.

Organism: Rattus norvegicus
Test: Protective index, ratio of TD50 for Rattus norvegicus Sprague-Dawley (rat) to ED50 for Rattus norvegicus Sprague-Dawley (rat) assessed protection against 6 Hz psychomotor seizure by minimal clonic seizure test
Type: functional
Conditions: not given

Row | Structure (SMILES) | Ratio TD50/ED50
1 | O=C(N/N=C/c1ccc(Cl)cc1)c1cccnc1 | >10

Tested on: not listed separately
Test: Neurotoxicity in po dosed Rattus norvegicus Sprague-Dawley (rat) assessed motor impairment by rotarod test
Type: toxicity, organism-based
Conditions: in vivo

Row | Structure (SMILES) | TD50
2 | O=C(N/N=C/c1ccc(Cl)cc1)c1cccnc1 | > 320 mg/kg

Tested on: Mus musculus
Test: Anticonvulsant activity in ip dosed Mus musculus C57B/6 (mouse) assessed protection against 6 Hz psychomotor seizure after 0.25 hr by minimal clonic seizure test
Type: functional
Conditions: C57B/6, ip, read-out: MED

Row | Structure (SMILES) | minimal effective dose
3 | O=C(N/N=C/c1ccc(Cl)cc1)c1cccnc1 | 12.5 mg/kg
4 | O=C(N/N=C/c1cccc(Br)c1)c1cccnc1 | 35 mg/kg

Tested on: Mus musculus
Test: Neurotoxicity in Mus musculus C57B/6 (mouse) assessed motor impairment at 300 mg/kg, ip after 4 hr by rotarod test
Type: toxicity, organism-based
Set-up: dose 300 mg/kg, route intraperitoneal
Conditions: in vivo

Row | Structure (SMILES) | Activity
5 | O=C(N/N=C/c1cccc(Br)c1)c1ccncc1 | Non-toxic
6 | Cc1ccc(C(=O)N/N=C/c2ccc([N+](=O)[O-])cc2)cc1 | Non-toxic
7 | O=C(N/N=C/c1cccc(Cl)c1)c1ccncc1 [N'-(3-CHLOROBENZYLIDENE)ISONICOTINOHYDRAZIDE] | Non-toxic
8 | O=C(N/N=C/c1ccc(Cl)cc1)c1cccnc1 | Non-toxic
9 | Cc1ccc(C(=O)N/N=C/c2ccc(Cl)cc2)cc1 | Non-toxic
10 | O=C(N/N=C/c1ccc(O)cc1)c1cccnc1 | Non-toxic
11 | O=C(N/N=C/c1cccc(Br)c1)c1cccnc1 | Non-toxic
12 | O=C(N/N=C/c1cccc(Cl)c1)c1cccnc1 | Non-toxic
13 | O=C(N/N=C/c1ccccc1F)c1ccccc1 | Non-toxic
14 | O=C(N/N=C/c1ccc(Cl)cc1)c1ccccc1 | Non-toxic

Tested on: Mus musculus
Test: Neurotoxicity in Mus musculus C57B/6 (mouse) assessed motor impairment at 300 mg/kg, ip after 0.5 hr by rotarod test
Type: toxicity, organism-based
Set-up: dose 300 mg/kg, route intraperitoneal
Conditions: in vivo

Row | Structure (SMILES) | Activity
15 | O=C(N/N=C/c1cccc(Br)c1)c1ccncc1 | Non-toxic
16 | Cc1ccc(C(=O)N/N=C/c2ccc([N+](=O)[O-])cc2)cc1 | Non-toxic
17 | O=C(N/N=C/c1cccc(Cl)c1)c1ccncc1 [N'-(3-CHLOROBENZYLIDENE)ISONICOTINOHYDRAZIDE] | Non-toxic
18 | O=C(N/N=C/c1ccc(Cl)cc1)c1cccnc1 | Non-toxic
19 | Cc1ccc(C(=O)N/N=C/c2ccc(Cl)cc2)cc1 | Non-toxic
20 | O=C(N/N=C/c1ccc(O)cc1)c1cccnc1 | Non-toxic
21 | O=C(N/N=C/c1cccc(Br)c1)c1cccnc1 | Non-toxic
22 | O=C(N/N=C/c1cccc(Cl)c1)c1cccnc1 | Non-toxic
23 | O=C(N/N=C/c1ccccc1F)c1ccccc1 | Non-toxic
24 | O=C(N/N=C/c1ccc(Cl)cc1)c1ccccc1 | Non-toxic

Tested on: Mus musculus
Test: Anticonvulsant activity in Mus musculus C57B/6 (mouse) assessed protection against subcutaneous pentylenetetrazole-induced seizures at 300 mg/kg, ip after 4 hr
Type: functional, organism-based
Set-up: dose 300 mg/kg
Conditions: not given

Row | Structure (SMILES) | Activity
25 | O=C(N/N=C/c1cccc(Br)c1)c1ccncc1 | inactive
26 | Cc1ccc(C(=O)N/N=C/c2ccc([N+](=O)[O-])cc2)cc1 | inactive
27 | O=C(N/N=C/c1cccc(Cl)c1)c1ccncc1 [N'-(3-CHLOROBENZYLIDENE)ISONICOTINOHYDRAZIDE] | inactive
28 | O=C(N/N=C/c1ccc(Cl)cc1)c1cccnc1 | inactive
29 | Cc1ccc(C(=O)N/N=C/c2ccc(Cl)cc2)cc1 | inactive
30 | O=C(N/N=C/c1ccc(O)cc1)c1cccnc1 | inactive
31 | O=C(N/N=C/c1cccc(Br)c1)c1cccnc1 | inactive
32 | O=C(N/N=C/c1cccc(Cl)c1)c1cccnc1 | inactive
33 | O=C(N/N=C/c1ccccc1F)c1ccccc1 | inactive
34 | O=C(N/N=C/c1ccc(Cl)cc1)c1ccccc1 | inactive

Tested on: Mus musculus
Test: Anticonvulsant activity in Mus musculus C57B/6 (mouse) assessed protection against subcutaneous pentylenetetrazole-induced seizures at 300 mg/kg, ip after 0.5 hr
Type: functional, organism-based
Set-up: dose 300 mg/kg
Conditions: not given

Row | Structure (SMILES) | Activity
35 | O=C(N/N=C/c1cccc(Br)c1)c1ccncc1 | inactive
36 | Cc1ccc(C(=O)N/N=C/c2ccc([N+](=O)[O-])cc2)cc1 | inactive
37 | O=C(N/N=C/c1cccc(Cl)c1)c1ccncc1 [N'-(3-CHLOROBENZYLIDENE)ISONICOTINOHYDRAZIDE] | inactive
38 | O=C(N/N=C/c1ccc(Cl)cc1)c1cccnc1 | inactive
39 | Cc1ccc(C(=O)N/N=C/c2ccc(Cl)cc2)cc1 | inactive
40 | O=C(N/N=C/c1ccc(O)cc1)c1cccnc1 | inactive
41 | O=C(N/N=C/c1cccc(Br)c1)c1cccnc1 | inactive
42 | O=C(N/N=C/c1cccc(Cl)c1)c1cccnc1 | inactive
43 | O=C(N/N=C/c1ccccc1F)c1ccccc1 | inactive
44 | O=C(N/N=C/c1ccc(Cl)cc1)c1ccccc1 | inactive

Tested on: Mus musculus
Test: Anticonvulsant activity in Mus musculus C57B/6 (mouse) assessed protection against maximal electroshock-induced seizures at 300 mg/kg, ip after 4 hr
Type: functional, organism-based
Set-up: dose 300 mg/kg
Conditions: not given

Row | Structure (SMILES) | Activity
45 | O=C(N/N=C/c1cccc(Br)c1)c1ccncc1 | inactive
46 | Cc1ccc(C(=O)N/N=C/c2ccc([N+](=O)[O-])cc2)cc1 | inactive
47 | O=C(N/N=C/c1cccc(Cl)c1)c1ccncc1 [N'-(3-CHLOROBENZYLIDENE)ISONICOTINOHYDRAZIDE] | inactive
48 | O=C(N/N=C/c1ccc(Cl)cc1)c1cccnc1 | inactive
49 | Cc1ccc(C(=O)N/N=C/c2ccc(Cl)cc2)cc1 | inactive
50 | O=C(N/N=C/c1ccc(O)cc1)c1cccnc1 | inactive
51 | O=C(N/N=C/c1cccc(Br)c1)c1cccnc1 | inactive
52 | O=C(N/N=C/c1cccc(Cl)c1)c1cccnc1 | inactive
53 | O=C(N/N=C/c1ccccc1F)c1ccccc1 | inactive
54 | O=C(N/N=C/c1ccc(Cl)cc1)c1ccccc1 | inactive

Tested on: Mus musculus
Test: Anticonvulsant activity in Mus musculus C57B/6 (mouse) assessed protection against maximal electroshock-induced seizures at 300 mg/kg, ip after 0.5 hr
Type: functional, organism-based
Set-up: dose 300 mg/kg
Conditions: not given

Row | Structure (SMILES) | Activity
55 | O=C(N/N=C/c1cccc(Br)c1)c1ccncc1 | inactive
56 | Cc1ccc(C(=O)N/N=C/c2ccc([N+](=O)[O-])cc2)cc1 | inactive
57 | Cc1ccc(C(=O)N/N=C/c2ccc(Cl)cc2)cc1 | inactive
58 | O=C(N/N=C/c1ccc(O)cc1)c1cccnc1 | inactive
59 | O=C(N/N=C/c1ccccc1F)c1ccccc1 | inactive
60 | O=C(N/N=C/c1ccc(Cl)cc1)c1ccccc1 | inactive

Tested on: Mus musculus
Test: Anticonvulsant activity in ip dosed Mus musculus C57B/6 (mouse) assessed protection against maximal electroshock-induced seizures after 0.5 hr
Type: functional
Conditions: C57B/6, ip, read-out: MED

Row | Structure (SMILES) | minimal effective dose
61 | O=C(N/N=C/c1cccc(Cl)c1)c1ccncc1 [N'-(3-CHLOROBENZYLIDENE)ISONICOTINOHYDRAZIDE] | 300 mg/kg
62 | O=C(N/N=C/c1ccc(Cl)cc1)c1cccnc1 | 100 mg/kg
63 | O=C(N/N=C/c1cccc(Br)c1)c1cccnc1 | 100 mg/kg
64 | O=C(N/N=C/c1cccc(Cl)c1)c1cccnc1 | 300 mg/kg

Tested on: Rattus norvegicus
Test: Anticonvulsant activity in po dosed Rattus norvegicus Sprague-Dawley (rat) assessed protection against 6 Hz psychomotor seizure by minimal clonic seizure test
Type: functional
Conditions: not given

Row | Structure (SMILES) | ED50
65 | O=C(N/N=C/c1ccc(Cl)cc1)c1cccnc1 | 31.4 mg/kg

Organism: Mus musculus
Test: Protective index, ratio of TD50 for Mus musculus C57B/6 (mouse) to ED50 for Mus musculus C57B/6 (mouse) assessed protection against 6 Hz psychomotor seizure by minimal clonic seizure test
Type: functional
Conditions: not given

Row | Structure (SMILES) | Ratio TD50/ED50
66 | O=C(N/N=C/c1ccc(Cl)cc1)c1cccnc1 | >20
67 | O=C(N/N=C/c1cccc(Br)c1)c1cccnc1 | >11
68 | O=C(N/N=C/c1cccc(Cl)c1)c1cccnc1 | >6.25

Tested on: not listed separately
Test: Neurotoxicity in ip dosed Mus musculus C57B/6 (mouse) assessed motor impairment by rotarod test
Type: toxicity, organism-based
Conditions: in vivo

Row | Structure (SMILES) | TD50
69 | O=C(N/N=C/c1ccc(Cl)cc1)c1cccnc1 | > 325 mg/kg
70 | O=C(N/N=C/c1cccc(Br)c1)c1cccnc1 | > 520 mg/kg
71 | O=C(N/N=C/c1cccc(Cl)c1)c1cccnc1 | > 500 mg/kg

Tested on: Mus musculus
Test: Anticonvulsant activity in ip dosed Mus musculus C57B/6 (mouse) assessed protection against 6 Hz psychomotor seizure by minimal clonic seizure test
Type: functional
Conditions: C57B/6, ip

Row | Structure (SMILES) | ED50
72 | O=C(N/N=C/c1ccc(Cl)cc1)c1cccnc1 | 16.1 mg/kg
73 | O=C(N/N=C/c1cccc(Br)c1)c1cccnc1 | 47.2 mg/kg
74 | O=C(N/N=C/c1cccc(Cl)c1)c1cccnc1 | 80 mg/kg

Tested on: Mus musculus
Test: Anticonvulsant activity in ip dosed Mus musculus C57B/6 (mouse) assessed protection against 6 Hz psychomotor seizure after 0.5 hr by minimal clonic seizure test
Type: functional
Conditions: C57B/6, ip, read-out: MED

Row | Structure (SMILES) | minimal effective dose
75 | O=C(N/N=C/c1ccc(Cl)cc1)c1cccnc1 | 12.5 mg/kg
76 | O=C(N/N=C/c1cccc(Br)c1)c1cccnc1 | 35 mg/kg
77 | O=C(N/N=C/c1cccc(Cl)c1)c1cccnc1 | 40 mg/kg
